Data reported in patent US5013841A, “Oxo quinoline derivatives” (Dainippon Pharmaceutical Co., Ltd., priority 1987, dated 1991).
Values after ≈ are worked out from the molar mass of the structure shown. Where two headings read alike, the source gives them in different places. One block for each compound: values may come before it.

What was measured:
[1] = system: Staphylococcus aureus 50774; assay type: in vivo, Staphylococcus aureus (male mice, Std-ddY); conditions: Staphylococcus aureus, 50774, po, 336 h, read-out: median effective dose (ED50)
Source text: Staphylococcus aureus 50774
Intravenous infection with 5×10^8 cells per mouse suspended in saline.
For 7 days for other organisms.

[2] = system: M. arginini G-230; test: Antimycoplasma activity (twofold agar dilution method); assay type: cell-based; conditions: 48 h, read-out: minimum inhibitory concentration (MIC)
Experimental: (§1) The figures in the table show minimum inhibitory concentrations (MIC), (μg/ml), calculated for free base.
(§2) Minimum inhibitory concentrations (MIC) were determined by the twofold agar dilution method. The media used were Chanock broth and agar PPLD broth and agar (Difco) supplemented with 20% horse serum and 10% fresh yeast extract). A 2-3 day broth culture of organisms was diluted with Chanock broth to a cell density of about 10^6 cells/ml. One loopful (about […]) of the organism dilution was spotted onto 10-ml drug containing Chanock agar in petri dishes using a multiple inoculator (Cathra International). The petri dishes were incubated at 37° C. for 7 and 2 days for Mycoplasma pneumoniae and other Mycoplasma spp. respectively. Incubation was performed anaerobically using the Gaspak anaerobic system (BBL) for M. buccale, M. fermentans, M. hominis, M. orale and M. salivarium, and aerobically for other Mycoplasma spp. The MIC was defined as the lowest compound concentration at which no growth of organism was detected.

[3] = system: M. orale CH-19299; test: as above; assay type: cell-based; conditions: 48 h, read-out: minimum inhibitory concentration (MIC)
Experimental: as §1, §2

[4] = system: M. hyorhinis BST-7; test: as above; assay type: cell-based; conditions: Mesomycoplasma hyorhinis, BST7, 48 h, read-out: minimum inhibitory concentration (MIC)
Experimental: as §1, §2

[5] = system: M. fermentans PG-18; test: as above; assay type: cell-based; conditions: Mycoplasmopsis fermentans, PG18, 48 h, read-out: minimum inhibitory concentration (MIC)
Experimental: as §1, §2

[6] = system: M. salivarium PG-20; test: as above; assay type: cell-based; conditions: 48 h, read-out: minimum inhibitory concentration (MIC)
Experimental: as §1, §2

[7] = system: M. buccale CH-20249; test: as above; assay type: cell-based; conditions: 48 h, read-out: minimum inhibitory concentration (MIC)
Experimental: as §1, §2

[8] = system: A. laidlawii PG-8; test: as above; assay type: cell-based; conditions: Acholeplasma laidlawii, PG8, 48 h, read-out: minimum inhibitory concentration (MIC)
Experimental: as §1, §2

[9] = system: M. hominis PG-21; test: as above; assay type: cell-based; conditions: Metamycoplasma hominis, PG21, 48 h, read-out: minimum inhibitory concentration (MIC)
Experimental: as §1, §2

[10] = system: Streptococcus pneumoniae 1 Neufeld; assay type: in vivo, Streptococcus pneumoniae (male mice, Std-ddY); conditions: 336 h, read-out: median effective dose (ED50)
[11] = system: S. aureus 209 JC-1; test: In vitro antibacterial activity (twofold agar-dilution method); assay type: cell-based; conditions: Staphylococcus aureus, 209JC1, 20 h, read-out: minimum inhibitory concentration (MIC)
Experimental: (§3) The figures in the table show minimum inhibitory concentrations (MIC) (μg/ml), calculated for free base. The minimum inhibitory concentration was determined by the twofold agar-dilution method, which was recommended by Japan Society of Chemotherapy (Chemotherapy, 29(1), 76(1981)), using Muller-Hinton agar. One loopful of an overnight culture of test organisms in Mueller-Hinton broth was inoculated onto 10-ml drug-containing agar layers in petri dishes. Bacterial inocula contained approximately 10^6 colonyl-formingunits. Bacterial growth was observed after 20-hour incubation at 37° C. The MIC was defined as the lowest drug concentration which prevented visible bacterial growth.

[12] = system: S. aureus No. 80; test: as above; assay type: cell-based; conditions: Staphylococcus aureus, NO.80, 20 h, read-out: minimum inhibitory concentration (MIC)
Experimental: as §3

[13] = system: E. coli NIHJ JC-2; test: as above; assay type: cell-based; conditions: Escherichia coli, NIHJJC2, 20 h, read-out: minimum inhibitory concentration (MIC)
Experimental: as §3

[14] = system: P. Aeruginosa 12; test: as above; assay type: cell-based; conditions: Pseudomonas aeruginosa, 20 h, read-out: minimum inhibitory concentration (MIC)
Experimental: as §3

[15] = system: S. marcescens IFO 3736; test: as above; assay type: cell-based; conditions: Serratia marcescens, IFO3736, 20 h, read-out: minimum inhibitory concentration (MIC)
Experimental: as §3

[16] = system: S. epidermidis No. 8; test: as above; assay type: cell-based; conditions: Staphylococcus epidermidis, NO.8, 20 h, read-out: minimum inhibitory concentration (MIC)
Experimental: as §3

[17] = system: Flavobacterium sp P-7201; test: as above; assay type: cell-based; conditions: Flavobacterium, P7201, 20 h, read-out: minimum inhibitory concentration (MIC)
Experimental: as §3

[18] = system: S. aureus Terajima; test: as above; assay type: cell-based; conditions: Staphylococcus aureus, 20 h, read-out: minimum inhibitory concentration (MIC)
Experimental: as §3

[19] = system: E. coli P-5101; test: as above; assay type: cell-based; conditions: Escherichia coli, P5101, 20 h, read-out: minimum inhibitory concentration (MIC)
Experimental: as §3

[20] = system: S. pyogenes Cook; test: as above; assay type: cell-based; conditions: Streptococcus pyogenes, 20 h, 37° C., calculated for free base, read-out: minimum inhibitory concentration (MIC)
Experimental: as §3

[21] = system: C. Trachomatics G/ur 931; test: Antichlamydia activity (inclusion bodies in McCoy cells); assay type: cell-based; conditions: 36° C., 40-48 h, calculated for free base, read-out: minimum inhibitory concentration (MIC)
Experimental: (§4) Minimum inhibitory concentrations (MIC) were determined as follows. McCoy cells were freshly cultured in Eagle's minimum essential medium (EMEM) (Flow) supplemented with 4% fetal bovine serum and 0.03% L-glutamine. The cells were trypsinized and suspended in the same culture medium at a cell concentration of 1-2×10^5 cells/ml. One ml of the cell suspension was pipetted into flat-bottomed plastic tubes (14 mm in diameter) containing a cover slip (12 mm in diameter). The tubes were incubated in 5% CO2 -air at 36° C. for 20 hours. One-half ml of a chlamydial suspension (ca. 1-4×10^3 inclusion body forming units) was added into each tube, which was then centrifuged at 1500×g for 60 minutes. The tubes were incubated for 1 hour at 36° C. The medium was changed with 1 ml of EMEM supplemented with 8% fetal bovine serum, 0.03% L-blutamine, 1μg/ml cycloheximide and 0.5% glucose, and containing drugs at various concentrations. After further incubation at 36° C. for 40-48 hours, the cells on the cover glasses were stained with the Giemsa's solution. […] The MIC was defined as the lowest drug concentration where there were no inclusion bodies in all the cells on the cover slip.

[22] = system: C. Trachomatics G/ur 1317; test: as above; assay type: cell-based; conditions: 36° C., 40-48 h, calculated for free base, read-out: minimum inhibitory concentration (MIC)
Experimental: as §4

[23] = system: C. Trachomatics G/ur 1483; test: as above; assay type: cell-based; conditions: 36° C., 40-48 h, calculated for free base, read-out: minimum inhibitory concentration (MIC)
Experimental: as §4

[24] = system: C. Trachomatics G/ur 1467; test: as above; assay type: cell-based; conditions: 36° C., 40-48 h, calculated for free base, read-out: minimum inhibitory concentration (MIC)
Experimental: as §4

[25] = system: M. pneumoniae Mac; test: Antimycoplasma activity (twofold agar dilution method); assay type: cell-based, Mycoplasma pneumoniae; conditions: Mycoplasmoides pneumoniae, 168 h, read-out: minimum inhibitory concentration (MIC)
Experimental: as §1, §2

[26] = system: Streptococcus pyogenes A65; conditions: A65, in Mus musculus, po, 168 h, read-out: median effective dose (ED50)
[27] = Urinary excretion in mice (thin-layer cup-plated method, Escherichia coli Kp indicator); assay type: in vivo; conditions: mouse, urine, oral, 5 mg/kg, read-out: Urinary recovery for 24 hours
Experimental: A suspension containing each of compounds was orally administered to mice at a dose of 5 mg/kg. Urine was collected over a period of 24 hours after adminstration. The levels of the compounds in urine were determined by the thin-layer cup-plated method using Escherichia coli Kp as an indicator organism.

Structure (SMILES): O=C(O)c1cn(C2CC2)c2cc(N3CCNCC3)c(F)cc2c1=O [Compound A, reference compound]
ED50 [1]: 8.24 mg/kg
MIC [2]: 0.39 µg/mL (≈ 1.18 µM)
MIC [3]: 1.56 µg/mL (≈ 4.71 µM)
MIC [4]: 0.39 µg/mL (≈ 1.18 µM)
MIC [5]: 0.2 µg/mL (≈ 0.604 µM)
MIC [6]: 3.13 µg/mL (≈ 9.45 µM)
MIC [7]: 0.39 µg/mL (≈ 1.18 µM)
MIC [8]: 0.39 µg/mL (≈ 1.18 µM)
MIC [9]: 1.56 µg/mL (≈ 4.71 µM)
ED50 ([10]; po): 31.3 mg/kg
MIC [11]: 0.1 µg/mL (≈ 0.302 µM)
MIC [12]: 0.39 µg/mL (≈ 1.18 µM)
MIC [13]: 0.0063 µg/mL (≈ 0.019 µM)
MIC [14]: 0.1 µg/mL (≈ 0.302 µM)
MIC [15]: 0.05 µg/mL (≈ 0.151 µM)
MIC [16]: 0.1 µg/mL (≈ 0.302 µM)
MIC [17]: 0.39 µg/mL (≈ 1.18 µM)
MIC [18]: 0.1 µg/mL (≈ 0.302 µM)
MIC [19]: 0.0063 µg/mL (≈ 0.019 µM)
MIC [20]: 0.2 µg/mL (≈ 0.604 µM)
MIC [21]: 1 µg/mL (≈ 3.02 µM)
MIC [22]: 2 µg/mL (≈ 6.04 µM)
MIC [23]: 1 µg/mL (≈ 3.02 µM)
MIC [24]: 1 µg/mL (≈ 3.02 µM)
MIC [25]: 0.78 µg/mL (≈ 2.35 µM)

Structure (SMILES): Nc1c(F)c(N2CCNCC2)c(F)c2c1c(=O)c(C(=O)O)cn2C1CC1 [Compound B, 5-amino-1-cyclopropyl-6,8-difluoro-7-(1-piperazinyl)-1,4-dihydro-4-oxoquinoline-3-carboxylic acid, reference compound]
ED50 [26]: > 50 mg/kg
ED50 ([10]; mice, oral, four times (immediately, 6, 24 and 30 h after intraperitoneal infection), 14 days, calculated for free base): 20.8 mg/kg
MIC [11]: 0.05 µg/mL (≈ 0.137 µM)
MIC [12]: 0.05 µg/mL (≈ 0.137 µM)
MIC [13]: 0.0063 µg/mL (≈ 0.0173 µM)
MIC [14]: 0.1 µg/mL (≈ 0.274 µM)
MIC [15]: 0.1 µg/mL (≈ 0.274 µM)
MIC [16]: 0.05 µg/mL (≈ 0.137 µM)
MIC [17]: 0.1 µg/mL (≈ 0.274 µM)
MIC ([18]; S. aureus Terajima, agar dilution, 37° C., calculated for free base): 0.025 µg/mL (≈ 0.0686 µM)
MIC [19]: 0.0063 µg/mL (≈ 0.0173 µM)
MIC [20]: 0.2 µg/mL (≈ 0.549 µM)

dose excreted at 24 h [27]: 4.51%
Structure (SMILES): CC1CN(c2c(F)c(N)c3c(=O)c(C(=O)O)cn(C4CC4)c3c2F)CC(C)N1 (centres unmarked) [Compound C, 5-amino-1-cyclopropyl-6,8-difluoro-7-(3,5-dimethyl-1-piperazinyl)-1,4-dihydro-4-oxoquinoline-3-carboxylic acid, reference compound]
